From US20030105300A1, “Tumor targeted photodiagnostic-phototherapeutic agents” (MALLINCKRODT INC., priority 2001, published 2003)

Tests used:
Parameters in all cases: species or system male Lewis rats
[1] = system: DSL 6/A (pancreatic) tumor; assay: In vivo fluorescence imaging of tumor-bearing rats with indocyanine green (DSL 6/A); details: DSL 6/A tumor, left flank; 0.5 ml of 0.42 mg/ml ICG in saline, tail vein; images at 2 and 30 minutes
From the text: (§1) A non-invasive in vivo fluorescence imaging apparatus was employed to assess the efficacy of indocyanine green (ICG) in three different rat tumor cell lines of the inventive contrast agents developed for tumor detection in animal models. A LaserMax Inc. laser diode of nominal wavelength 780 nm and nominal power of 40 mW was used. The detector was a Princeton Instruments model RTE/CCD-1317-K/2 CCD camera with a Rodenstock 10 mm F2 lens (stock #542.032.002.20) attached. An 830 nm […] (CVI Laser Corp., part #F10-830-4-2) was mounted in front of the CCD input lens, such that only emitted fluorescent light from the contrast agent was imaged.
(§2) Three tumor cell lines, DSL 6/A (pancreatic), Dunning R3327-H (prostate), and CA20948 (pancreatic), which are rich in somatostatin (SST-2) receptors were induced into male Lewis rats by solid implant technique in the left flank area (Achilefu et al., Invest. Radiology, 2000, pp. 479-485). Palpable masses were detected nine days post implant.

[2] = system: CA20948 (pancreatic) tumor; assay: In vivo fluorescence imaging of tumor-bearing rats with indocyanine green (CA20948)
From the text: as §1, §2

[3] = system: Dunning R3327-H (prostate) tumor; assay: In vivo fluorescence imaging of tumor-bearing rats with indocyanine green (Dunning R3327-H); details: left flank, 0.5 ml of 0.42 mg/ml ICG in saline, tail vein, images at 2 and 30 minutes
From the text: as §1, §2

CC1(C)C(/C=C/C=C/C=C/C=C2\N(CCCCS(=O)(=O)O)c3ccc4ccccc4c3C2(C)C)=[N+](CCCCS(=O)(=O)[O-])c2ccc3ccccc3c21 [ICG, indocyanine green]
perfusion of the agent into the tumor (fluorescence images) [1]: slow perfusion of the agent into the tumor over time
non-specific localization into the tumor line ([2]; compared to the other two lines): no non-specific localization
perfusion of the agent into the tumor (fluorescence images) ([2]; left flank, 0.5 ml of 0.42 mg/ml ICG in saline, tail vein, images at 2 and 30 minutes): only a slight and transient perfusion that was cleared after only 30 minutes post injection
perfusion of the agent into the tumor (fluorescence images) [3]: slow perfusion of the agent into the tumor over time
